# Experimental data taken from US8252764B2, “Compositions and methods of use of targeting peptides against placenta and adipose tissues” (priority 2000, dated 2012).
# How the values were obtained:
# [1] = target: T1, β3 integrin cytoplasmic domain (Homo sapiens, UniProt P05106); test: Phage binding to immobilized GST-β3cyto
# T1 sequence (P05106 742-788 limits assumed): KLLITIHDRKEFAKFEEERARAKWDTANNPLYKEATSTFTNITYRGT
# Procedure: (§1) FIG. 18. Binding of β3 cytoplasmic domain-selected phage to immobilized proteins. GST fusion proteins or GST alone were coated on microtiter wells at 10 μg/ml and used to bind phage-expressing endostatin targeting peptides. […] The data represent the mean colony counts from triplicate wells, with standard error of less than 10% of the mean.
# β3 and β5 cytoplasmic domain-binding peptides were isolated by screening multiple phage libraries with recombinant GST fusion proteins that contained either GST-β3cyto or GST-β5cyto coated onto microtiter wells. Immobilized GST was used as a negative control for enrichment during the panning of each cytoplasmic domain. Phage were sequenced from randomly selected clones after three rounds of panning as disclosed elsewhere (Koivunen et al., Biotechnology 13:265-270, 1995; Pasqualini et al., 1995). Distinct sequences were isolated that interacted specifically with the β3 or with the β5 cytoplasmic domains (Table 4). Randomly selected clones from panning rounds II and III were sequenced. […] The ratios were calculated by dividing the number of colonies recovered from β3-GST-coated wells and those recovered from GST or BSA.
# The specificity of the interaction with β3 or β5 cytoplasmic domains was determined by calculating the ratios of phage bound to the cytoplasmic domain containing-fusion proteins (β3 or β5) versus GST alone (negative control). […]
# [2] = target: T2, β5 integrin cytoplasmic domain (Homo sapiens, UniProt P18084); test: Phage binding to immobilized GST-β5cyto; conditions: phage colonies
# T2 construct: screenings involving the β5 cytoplasmic domain fusion protein
# T2 sequence (P18084 743-799 limits assumed): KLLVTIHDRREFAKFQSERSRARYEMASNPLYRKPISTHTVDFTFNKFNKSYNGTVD
# Procedure: as §1, with “19.” for “18.”, “β5” for “β3”, “binding” for “targeting”, “error” for “error of”
# β3 and β5 cytoplasmic domain-binding peptides were isolated by screening multiple phage libraries with recombinant GST fusion proteins that contained either GST-β3cyto or GST-β5cyto coated onto microtiter wells. Immobilized GST was used as a negative control for enrichment during the panning of each cytoplasmic domain. Phage were sequenced from randomly selected clones after three rounds of panning as disclosed elsewhere (Koivunen et al., Biotechnology 13:265-270, 1995; Pasqualini et al., 1995). Distinct sequences were isolated that interacted specifically with the β3 or with the β5 cytoplasmic domains (Table 4). Randomly selected clones from panning rounds II and III were sequenced. Amino acid sequences of the phagemid encoded peptides were deduced from nucleotide sequences. The ratios were calculated by dividing the number of colonies recovered from β3-GST-coated wells and those recovered from GST or BSA.
# A similar strategy was used to determine the specificity of the phage isolated in the screenings involving the β5 cytoplasmic domain fusion protein.
# SK-RC-49/APA cells = test: Phage binding specificity assay on SK-RC-49/APA cells; assay type: cell-based; conditions: soluble peptide, not shown
# Procedure: The cell binding assay was performed with an input of 10^9 TU as described for the cell panning. The specificity was confirmed by adding […] (SEQ ID NO:56) peptide to the binding medium in increasing concentrations. For phage binding on immunocaptured APA, wells were blocked for 1 h at room temperature with PBS/3% BSA and incubated with 10^9 TU for 1 h at room temperature in 50 μl PBS/3% BSA. After eight washes in PBS/1% BSA/0.01% Tween-20 and two washes in PBS, phage were rescued by adding 200 μl of exponentially growing K91Kan E. coli. Each experiment was repeated at least three times.
# HUVECs [3] = test: HUVEC chemotaxis assay (Boyden chamber); assay type: cell-based, human; conditions: HUVECs, VEGF-A, not shown
# Procedure: FIG. 33. […] (SEQ ID NO:56) inhibits HUVEC migration. HUVECs were stimulated with VEGF-A (10 ng/ml). The assay was performed in a Boyden microchemotaxis chamber, and cells were allowed to migrate through an 8-μm pore filter for 5 h at 37° C. […] (SEQ ID NO:57) (control) and […] (SEQ ID NO:56) peptides were tested at 1 mM concentration. Migrated cells were stained and five high-power fields (magnitude 100×) for each microwell were counted. Error bars are the standard error of the means of triplicate microwells.
# A cell migration assay was performed in a 48-well microchemotaxis chamber (NeuroProbe, Gaithersburg, Md.) according to Bussolini et al. (1995). Polyvinylpyrrolidone-free polycarbonate filters (Nucleopore, Cambridge, Mass.) with 8-μm pores were coated with 1% gelatin for 10 min at room temperature and equilibrated in M199 medium supplemented with 2% FCS. […] (SEQ ID NO:56) or control […] (SEQ ID NO:57) peptide (1 mM) was placed in the lower compartment of a Boyden chamber in M199 medium supplemented with 2% FCS and 10 ng/ml VEGF-A (R&D System). Subconfluent cultures that had been starved overnight were harvested in PBS containing 2.5 mM EDTA, washed once in PBS, and resuspended in M199 medium containing 2% FCS at a final concentration of 2×10^6 cells/ml. […] Five random high-power fields (magnitude 100×) were counted in each well. […]
# HUVECs [4] = test: Three-dimensional cell culture on Matrigel; assay type: cell-based, human; conditions: HUVECs on three-dimensional matrix gel, not shown
# Procedure: Matrigel (Collaborative Research, Bedford, Mass.) was added at 100 μl per well to 48-well tissue culture plates and allowed to solidify for 10 min at 37° C. HUVECs were starved for 24 h in M199 medium supplemented with 2% FCS before being harvested in PBS containing 2.5 mM EDTA. 10^4 cells were gently added to each of the triplicate wells and allowed to adhere to the gel coating for 30 min at 37° C. Then, medium was replaced with indicated concentrations of […] (SEQ ID NO:56) or […] (SEQ ID NO:57) peptides in complete medium. The plates were photographed after 24 h with an inverted microscope (Canon). The assay was repeated three times.
# [5] = tested on: chicken chorioallantoic membrane (CAM); test: CAM assay for angiogenesis; assay type: in vivo
# Procedure: In vivo angiogenesis was evaluated by a CAM assay (Ribatti et al., 1994). Fertilized eggs from White Leghorn chickens were maintained in constant humidity at 37° C. On the third day of incubation, a square window was opened in the eggshell and 2-3 ml of albumen was removed to detach the developing CAM from the shell. The window was sealed with a glass plate of the same size and the eggs were returned to the incubator. At day 8, 1 mm^3 sterilized gelatin sponges (Gelfoam, Upjohn Co, Kalamazoo, […]) were adsorbed with VEGF-A (20 ng, R&D System) and either […] (SEQ ID NO:56) or control […] (SEQ ID NO:57) peptide (1 mM) in 3 μl PBS and implanted on the top of the growing CAMs under sterile conditions. CAMs were examined daily until day 12 and photographed in ovo with a Leica stereomicroscope. Capillaries emerging from the sponge were counted. The assay was repeated twice.
# endothelial cells = test: Endothelial cell migration (chemotaxis) assay with penetratin peptide chimeras; assay type: cell-based, human; conditions: 48-well microchemotaxis chamber
# Procedure: FIG. 25. Effect of penetratin peptide chimeras on endothelial cell migration. Cell migration assay were performed, in a 48-well microchemotaxis chamber. Five random high-power fields (magnitude 40×) were counted in each well.
# Cell migration assays were performed as follows: 48-well microchemotaxis chambers were used. Polyvinylpyrrolidone-free polycarbonate filters (Nucleopore, Cambridge, Mass.) with 8-μm pores were coated with 1% gelatin for 10 min at room temperature and equilibrated in M199 medium supplemented with 2% FCS. Peptides were placed in the lower compartment of a Boyden chamber in M199 supplemented with 2% FCS, 20 ng/ml VEGF-A (R&D System), and 1 U/ml heparin. Overnight-starved subconfluent cultures were quickly trypsinized, and resuspended in M199 containing 2% FCS at a final concentration of 2×10^6 cells/ml. After the filter was placed between lower and upper chambers, 50 μl of the cell suspension was seeded in the upper compartment. Cells were allowed to migrate for 5 h at 37° C. in a humidified atmosphere with 5% CO2. The filter was then removed, and cells on the upper side were scraped with a rubber policeman. […] Five random high-power fields (magnitude 40×) were counted in each well.
# Cell migration was assayed in a 48-well microchemotaxis chamber. […] Five random high-power fields (magnitude 40×) were counted in each well.
sequence,measurement,setting,value
AGWLYMSWK,β3/BSA Ratio,[1]; phage colonies recovered from β3-GST-coated wells divided by BSA,2.4
same,β3/GST Ratio,[1]; phage colonies recovered from β3-GST-coated wells divided by GST,1.8
CKLWQEDGY,β5/BSA Ratio,[2]; β5 versus BSA,665
same,β5/GST Ratio,[2]; β5 versus GST,1.8
GACVRLSACGA [reference compound],competition with CPKVCPRECESNC phage for binding to SK-RC-49/APA cells,SK-RC-49/APA cells,no competitive activity
same,effect on cell migration or proliferation,HUVECs [3],no significant effect on cell migration or proliferation
same,formation of capillary-like network,HUVECs [4],did not affect HUVEC morphogenesis
same,BLOOD VESSEL NUMBERS,"[5]; VEGF-A 20 ng, peptide 1 mM, mean and standard error, two experiments",56.5 ± 2.12
same,effect on the number of growing vessels,[5]; not shown,no effect on the number of growing vessels
GLDTYRGSP,effect on endothelial cell migration,endothelial cells,increase cell migration
SDNRYIGSW,effect on endothelial cell migration,endothelial cells,increase cell migration
